Like-named read-outs stand apart in the source and are kept apart here.
How the values were obtained:
[1] = Solubility in aqueous solutions
Excerpt: Therefore, two different approaches for modifying the sPPp conjugate were investigated to improve its in vivo targetability.

[2] = test system: EGFR-overexpressing A-431 tumor xenograft; assay: Tumor growth delay photodynamic therapy (PDT) studies, single and repeat treatment (Example 4, FIGS. 4 and 5); assay type: in vivo, athymic NCr nu/nu mice; conditions: single PDT, 60 nmole PPa content per 20 g, 100 J/cm^2 at ~16 hours post-injection
Description: All formulations were administered at a dosage equivalent to 60 nmole PPa content per 20 gram body weight in a 200 μl bolus injection via the tail vein (or via retro-orbital injection when tail vein injections were not feasible). A 670 nm diode laser light dose of 100 J/cm^2, delivered at ˜50 mW/cm^2, was given at ˜16 hours post-injection over an area covering the entire tumor surface as well as a 2 to 3 mm border extending beyond the edge of the tumor. The tumor model was the EGFR-overexpressing A-431 tumor xenograft grown in athymic NCr nu/nu mice (5-week old mice from the National Cancer Institute at Frederick, Md.). Data series were plotted so that the time at which each tumor reached ˜150 mm^3 corresponds to 0 days; i.e., the approximate time at which the PDT light dose was administered.
Control experiments were also performed, which included injecting mice with the sPPp formulations but not exposing them to light.

[3] = test system: A-431 human epidermoid carcinoma tumor xenografts; assay: Time-coursed fluorescence imaging in tumor xenograft model with ROI analysis; assay type: in vivo, athymic nude mice
Description: ROI measurements were done using ImageJ software (Rasband 1997-2007). For FIGS. 2A and 2B, image exposure times were 0.65 seconds, whereas image exposure times in FIG. 2C were 4 seconds in order to compensate for the smaller injected dosage of PPa content.
To assess the in vivo delivery characteristics of sPPp conjugate formulations, time-coursed fluorescence imaging studies were performed in a tumor xenograft model grown in athymic nude mice. Tumor xenografts were grown subcutaneously in the left upper chest region using the A-431 human epidermoid carcinoma cell line (American Type Culture Collection, Manassas, Va.), which is ideal for EGFR-targeting studies given that these cells overexpress ˜1×10^6-2.6×10^6 EGFR/cell (Haigler, et al. (1978) Proc. Natl. Acad. Sci. USA 75:3317-21; Mendelsohn (1997) Clin. Cancer Res. 3:2703-7). When tumor sizes reached greater than ˜100 mm^3, mice were imaged pre-injection, and then free PPa or sPPp conjugate formulations that had been sterile filtered through a 0.2 micron membrane were injected via tail vein or retro-orbitally at dosages ranging from ˜10 to ˜80 nmoles PPa content per mouse (mice weighed ˜20 g) in a single bolus volume of approximately 200 microliters. A series of post-injection images were then taken over a period of time until mouse fluorescence levels approached pre-injection baseline levels. Images were acquired of the ventral surface of the animals using a custom built surface-weighted fluorescence imager with a 670 nm laser for excitation and a 685 nm long-pass emission filter for detection (Pogue, et al. (2004) Technol. Cancer Res. Treat. 3:15-21). […]
As a quantitative measure of the tumor contrast generated by the surfactant-solubilized free PPa solution and the different sPPp conjugate formulations, region of interest (ROI) mean pixel values of the tumor area and control adjacent chest area were measured from the imaging data sets.

[4] = test system: A-431 human tumor xenografts; assay: Preliminary tumor growth delay studies after phototherapy (Example 3, FIG. 3); assay type: in vivo, mice
Description: Mice were implanted with A-431 tumor xenografts and were administered phototherapy when their tumor sizes reached approximately 150 mm^3. Tumors were then regularly measured to determine the time it took for the tumors to reach four times their initial treatment size. To allow for easier comparisons, tumor growth delay data sets have been aligned so that the 0-day time point corresponds to a tumor volume of 150 mm^3. Diamond, control mice (no PPa or sPPp conjugate; no light), lumped data set, n=6. Squares, mice treated with 60 nmoles surfactant-solubilized free PPa in 2% ethanol/1% TWEEN 80/PBS for a ˜16 hour incubation and treated with 100 J/(cm*cm) light, n=4. Triangles, mice treated with 60 nmoles partially PEG2(20 kDa)ylated (˜63 molar %) sPPp conjugate in PBS for a ˜16 hour incubation and treated with 500 J/(cm*cm) light, n=3.
Preliminary tumor growth delay studies comparing the in vivo phototherapeutic effects of the partially PEG2(20 kDa)ylated sPPp conjugate to the gold standard surfactant-solubilized free PPa solution are shown in FIG. 3. A-431 human tumor xenografts were grown in mice as previously described, and when tumors reached ˜150 mm^3, mice were injected via the tail vein or retro-orbitally with 60 to 80 nmoles PPa content in a bolus volume of approximately 200 microliters. Sixteen hours post-injection, the entire tumor surface along with a 1-2 mm margin of skin around the tumor edge was uniformly irradiated with the expanded beam of a 670 nm laser at an incident fluence rate of ˜50 mW/cm^2. Six mice that received no injections and no irradiations served as a control group. Tumor growth delays resulting from the tumoricidal effects of the phototherapeutic treatments were determined with respect to the control group. For control mice, it took roughly 8.1 days for tumors to quadruple in size from 150 mm^3 to 600 mm^3, and for mice treated with 60 nmoles surfactant-solubilized free PPa and 100 J/cm^2 light, it took only slightly longer, 12.6±2.4 days (i.e., a tumor growth delay of ˜4.5 days compared to the control group). […]

[5] = 60 nmoles, 100 J/cm^2 light, 16 hours post-injection

Row | Compound | solubility in aqueous solutions [1] | delay in tumor growth compared to untreated control mice [2] | peak tumor area to adjacent chest area mean pixel value ratio (tumor contrast) ([3]; 60 nmoles PPa in 2% ethanol/1% TWEEN 80/PBS, at ~16 hours post-injection, FIG. 2A) | clearance from the circulation ([3]; A-431 tumor-bearing mice, single bolus injection, fluorescence imaging) | tumor fluorescence at time of peak tumor contrast ([3]; FIG. 2) | solubility in aqueous solutions ([1]; aqueous solutions) | time for tumors to quadruple in size from 150 mm^3 to 600 mm^3 [4, 5] [days] | tumor growth delay compared to the control group [4, 5] [days] | lethality ([4]; irradiations performed immediately after injection)
1 | C=CC1=C(C)c2cc3[nH]c(c4c5nc(cc6[nH]c(cc1n2)c(C)c6CC)C(C)=C5C(=O)C4)C(CCC(=O)NC(CC(=O)O)C(=O)NCCCCC(N)C(=O)NCCOCCOCCOCCOCCOCCOCCOCCOCCOCCOCCOCCOCCC(=O)NCCOCCOCCOCCOCCOCCOCCOCCOCCOCCOCCOCCOCCC(N)=O)C3C (stereo not drawn) [sPPp] | highly soluble and readily dissolved in aqueous solutions |  |  |  |  |  |  |  | 
2 | pyropheophorbide-a [free PPa] |  | no significant delay in tumor growth | ~1.5 | cleared very rapidly from the circulation via the hepatobiliary system | already approaching pre-injection fluorescence levels | required potentially harmful solubilizers to prevent the formation of large insoluble aggregates | 12.6 ± 2.4 | ~4.5 | very high incidence of lethality
